{"source": "patent US11857618B2", "about": "(priority 2020, dated 2024)", "test_system": "phosphorylation of IRF3 in HeLa cells", "assay_type": "cell-based", "data": [{"smiles": "Nc1nc(=O)c2ncn([C@@H]3O[C@@H]4COP(=O)(O)O[C@H]5[C@@H](O)[C@H](n6cnc7c(N)ncnc76)O[C@@H]5COP(=O)(O)O[C@@H]3[C@@H]4O)c2[nH]1", "note": "[cGAMP, 2′,3′-cGAMP (cyclic [G(2′,5′)pA(3′,5′)p])]", "values": [{"measurement": "pIRF3 levels (band normalized to actin) as compared to untreated control", "value": "up to 3 fold"}]}]}
